Measured values: US5512548A, “CETP inhibitor polypeptide, antibodies against the synthetic polypeptide and prophylactic and therapeutic anti-atherosclerosis treatments” (Southwest Foundation for Biomedical Research, priority 1994, dated 1996)

Test system: CETP
Assay: Cholesteryl ester transfer assay (CE transfer from 3H CE-HDL3 to VLDL+LDL with LPDS as CETP source)
Type: biochemical, baboon (Papio sp.)
Conditions: electroeluted from gels, increasing concentrations, lipoproteins from low HDL1 baboons
Description: The CE transfer activity of a sample was assayed by a modification of a procedure described previously (Kushwaha et al, (1986), supra).
Briefly, ^3 H CE-labeled HDL3 containing 50-100 μg of CE from low HDL1 baboons was incubated with VLDL+LDL containing 100-300 μg CE in the presence of LPDS. The acceptor lipoproteins and the LPDS were obtained from low HDL1 baboon plasma (chow diet). In some cases the HDL3 was obtained from high HDL1 baboons maintained on the HCHF diet.
The incubations were carried out at 4° C. (control) and 37° C. for 4-6 hrs, and terminated by placing the samples on ice. The assay mixture was then ultracentrifuged to separate VLDL+LDL having a […], and the radioactivity in the lipoproteins was counted as described previously (Kushwaha et al, (1986), supra). Any difference observed in the radioactivity transferred from HDL to VLDL+LDL at 4° C. and 37° C. was attributed to CETP activity in the LPDS.
Time course experiments gave a linear response up to 7 hrs. Similarly, the CETP activity was linear with increasing LPDS, up to 140 μl LPDS, which was derived from an equivalent volume of plasma. […]
The percent difference between the control experiment and the assay with inhibitor peptide was expressed as the inhibitor activity. […]

## Albumin
  effect on the transfer of CE from HDL to VLDL+LDL (CETP activity): no effect
